From patent US9034891B2, “Bicyclic heterocyclic spiro compounds” (ISRAEL INSTITUTE FOR BIOLOGICAL RESEARCH, priority 2009, dated 2015)
Changes are numbered by the printed parent chain. “Also recorded” adds a separate entry of the source.

Legend:
tau protein = experiment: Tau-1 (unphosphorylated tau) western blot in PC12 cells transfected with M1 mAChR, +Aβ25-35; format: cell-based, rat; settings: 100 μM-1 nM; Aβ25-35 20 μM
Excerpt: Anti-GSK-3 (Santa Cruz Biotechnology) is a phosphorylation-independent monoclonal antibody reactive with both GSK-3α and GSK3β. In the same experiments the status of tau protein phosphorylation was studied using mouse anti Tau-1 monoclonal antibody (Chemicon, CAT number MAB3420), which recognizes an unphosphorylated epitope of tau.

PC12 cells = experiment: Mitochondrial apoptosis pathway, Bax and Bcl-2 immunoreactivity in PC12 cells; format: cell-based, rat
Procedure: These cells were partially differentiated (2-3 days), as observed under microscope. […] The pellet (rich mitochondrial fraction) was re-suspended with 200 μl Ripa buffer and lysed by rapid passage through a syringe needle (23G) for five to six times. The lysate was then used for further evaluation.
Bands were probed using the Rabbit Bax antibody (1:1000, Cell signaling, Cat. No. 2772) and Rabbit Bcl-2 antibody (1:1000, Cell signaling, Cat. No. 2870) followed by anti rabbit IgG (H&L) HRP (1:5,000, Jackson Immuno Research, 111-035-144).

5HT2A receptor = 5HT2A receptor (Homo sapiens, UniProt P28223); experiment: Functional study, agonist or antagonist
Excerpt: (§1) It was specifically designed to provide information not only on potential limitations of drug candidates, but also for off-target activity identification. […] In a further extension of this study, functional studies were done on most of these receptors.

5HT2C Receptor = 5HT2C Receptor (Homo sapiens, UniProt P28335); experiment: Functional study, agonist or antagonist
Excerpt: as §1

Histamine 2 Receptor = Histamine 2 Receptor (Homo sapiens, UniProt P25021); experiment: Functional study, agonist or antagonist
Excerpt: as §1

ERK 1/2 phosphorylation = experiment: Phospho-p44/42 MAPK (ERK 1/2) detection in PC12M1 cells; format: cell-based, rat; settings: 3 hours
[1] = Description: On the day of dosing, careful clinical examinations were carried out and recorded periodically during the first 4 hours post-dosing and at the end of the respective working day. Thereafter, animals were inspected and clinical signs were recorded at least once daily throughout the entire 14-day observation period. Observations included changes in skin, fur, eyes, mucous membranes, occurrence of secretions and excretions (e.g. diarrhea) and autonomic activity (e.g. lacrimation, salivation, piloerection, pupil size, unusual respiratory pattern). Changes in gait, posture and response to handling, as well as the presence of bizarre behavior, tremors, convulsion, sleep and coma were also examined. […] In view of the sequential method applied in the current study and in order to standardize, as much as possible, all body weight and body weight gain values, the respective percentage change in body weight vs. the day of dosing was calculated for each animal and group. […] All animals were subjected to a full detailed necropsy and gross pathological examination following the scheduled termination. At necropsy, all animals were subjected to thorough examination, including the external surface of the body, all orifices, cranial, thoracic and abdominal cavities and their contents.
M1 mAChR [2] = target: T1, M1 mAChR (Homo sapiens, UniProt P11229)
T1 sequence (P11229 1-460): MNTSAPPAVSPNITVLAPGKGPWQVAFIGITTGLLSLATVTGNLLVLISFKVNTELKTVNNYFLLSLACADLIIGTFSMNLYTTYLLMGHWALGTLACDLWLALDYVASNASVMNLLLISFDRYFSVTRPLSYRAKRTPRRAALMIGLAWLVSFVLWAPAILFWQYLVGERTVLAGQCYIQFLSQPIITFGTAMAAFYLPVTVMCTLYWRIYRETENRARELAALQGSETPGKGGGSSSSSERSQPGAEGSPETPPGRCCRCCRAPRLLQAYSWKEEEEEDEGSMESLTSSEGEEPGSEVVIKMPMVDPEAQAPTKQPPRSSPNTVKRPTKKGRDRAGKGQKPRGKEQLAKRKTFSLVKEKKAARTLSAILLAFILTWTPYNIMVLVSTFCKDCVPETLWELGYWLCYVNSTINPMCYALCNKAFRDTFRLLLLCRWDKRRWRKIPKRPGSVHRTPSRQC

M1 mAChR [3] = target: T2, M1 mAChR (Rattus norvegicus, UniProt P08482); settings: [3H]PZ, rat cortical membranes
T2 sequence (P08482 1-460): T1 sequence (P11229 1-460) with A5V, T254S, P309S, R320K, A337G, I413V

M1 mAChR [4] = target: T1, M1 mAChR; experiment: Intracellular Ca2+ mobilization (Fluo-4 NW) in cells stably transfected with M1 mAChR; format: cell-based; set-up: expressed in transfected cells; settings: 100 μM; mobilization of intracellular Ca ions
Excerpt: On the day of experiment, cells were fully confluent.
To evaluate selectivity for a subtype of mAChR, in particular the M1 mAChR vs. M3 and MS mAChR, the assays were calibrated using ligands that have a combined activity, e.g. M1 agonistic and M3 antagonistic or M1 agonistic and MS antagonistic profiles, respectively. This can eliminate effects due to different receptor reserves in cell-based assays.

Chain of 5HT2A receptor (P28223 whole entry): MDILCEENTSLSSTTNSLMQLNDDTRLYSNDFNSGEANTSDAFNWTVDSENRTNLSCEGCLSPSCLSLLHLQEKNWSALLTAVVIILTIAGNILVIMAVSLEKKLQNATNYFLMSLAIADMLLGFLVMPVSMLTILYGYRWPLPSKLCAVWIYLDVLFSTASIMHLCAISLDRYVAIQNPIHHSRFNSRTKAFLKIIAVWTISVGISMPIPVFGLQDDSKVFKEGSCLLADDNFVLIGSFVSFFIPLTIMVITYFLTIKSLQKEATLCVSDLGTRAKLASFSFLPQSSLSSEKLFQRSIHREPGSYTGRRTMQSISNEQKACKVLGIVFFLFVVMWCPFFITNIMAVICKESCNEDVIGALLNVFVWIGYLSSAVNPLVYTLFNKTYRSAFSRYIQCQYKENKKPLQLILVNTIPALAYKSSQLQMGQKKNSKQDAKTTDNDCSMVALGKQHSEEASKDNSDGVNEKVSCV
Chain of Histamine 2 Receptor (P25021 whole entry): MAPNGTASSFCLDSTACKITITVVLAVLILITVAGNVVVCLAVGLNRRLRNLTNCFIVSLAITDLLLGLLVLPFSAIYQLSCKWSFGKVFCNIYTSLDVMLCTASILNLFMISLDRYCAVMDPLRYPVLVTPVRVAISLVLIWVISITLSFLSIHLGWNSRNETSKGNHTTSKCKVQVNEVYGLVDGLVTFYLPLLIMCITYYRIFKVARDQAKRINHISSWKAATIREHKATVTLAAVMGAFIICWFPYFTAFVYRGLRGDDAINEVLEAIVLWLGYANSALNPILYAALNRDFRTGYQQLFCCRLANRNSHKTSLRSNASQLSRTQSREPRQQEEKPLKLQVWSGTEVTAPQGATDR
Chain of 5HT2C Receptor (P28335 33-458): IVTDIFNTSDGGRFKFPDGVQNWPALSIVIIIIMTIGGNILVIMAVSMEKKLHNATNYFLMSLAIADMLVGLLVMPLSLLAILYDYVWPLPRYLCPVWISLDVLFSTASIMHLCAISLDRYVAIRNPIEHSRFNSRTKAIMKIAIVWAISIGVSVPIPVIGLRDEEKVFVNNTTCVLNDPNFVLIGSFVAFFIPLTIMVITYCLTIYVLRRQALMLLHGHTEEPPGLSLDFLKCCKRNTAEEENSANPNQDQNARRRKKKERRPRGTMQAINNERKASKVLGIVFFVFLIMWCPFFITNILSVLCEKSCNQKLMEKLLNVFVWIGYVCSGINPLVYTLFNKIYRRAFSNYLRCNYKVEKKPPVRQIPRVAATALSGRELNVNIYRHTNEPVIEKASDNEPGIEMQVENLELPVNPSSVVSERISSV

With `C[C@@H]1SC2(CCN(C)CC2)CN1C(=O)CCc1c[nH]c2ccccc12` (single isomer, unassigned) [AF710B] the “Tau-1 staining decreased by Aβ25-35” value (tau protein) was “restored these effects to control level”, the “Bax elevation after NGF deprivation” value (PC12 cells) was “attenuated Bax elevation” and the Emax at 0.01 µM (PC12 cells; Rattus norvegicus, PC-12, 10 nM, read-out: Aβ 25-35 induced neurotoxicity expressed as Bax/Bcl2, maximum effect) was 35%. The “agonist or antagonist activity on 5HT2A receptor” value (5HT2A receptor) was “inactive”, the “agonist or antagonist activity on 5HT2C receptor” value (5HT2C Receptor) was “inactive” and the “agonist or antagonist activity on histamine 2 receptor” value (Histamine 2 Receptor) was “inactive”. The “phospho-ERK1/2, compound alone” value (ERK 1/2 phosphorylation) was “does not increase”, the mortality ([1]; 1, 10 and 50 mg/kg, oral gavage, 14-day observation) was “No mortality” and the “gross pathological findings at necropsy” value ([1]; rat, in vivo, po) was “No gross pathological findings”. The “effect of brucine pre-incubation on elevation of intracellular calcium ions” value (M1 mAChR [2]) was “no such effect; also recorded: slight inhibition”, the “fraction of higher affinity binding site” value (M1 mAChR [3]) was 29% and the “fraction of lower affinity binding site” value (M1 mAChR [3]) was 71%. The Ki (M1 mAChR [3]; read-out: lower affinity binding site KL) was 41 µM and the “M1 agonist at 100 μM vs. carbachol (full muscarinic agonist, 100%)” value (M1 mAChR [4]) was 66%.
